Our source for the Kd values is paper PMC9338045, “An acquired phosphatidylinositol 4-phosphate transport initiates T-cell deterioration and leukemogenesis” (Nature Communications, 2022).

Assay [1] deals with T1, OSBP (Homo sapiens, UniProt P22059).
T1 construct: full-length cDNA in pGEX-4T-1, E. coli Rosetta(DE3), GST fusion, GST tag removed by thrombin
T1 sequence (P22059 1-807): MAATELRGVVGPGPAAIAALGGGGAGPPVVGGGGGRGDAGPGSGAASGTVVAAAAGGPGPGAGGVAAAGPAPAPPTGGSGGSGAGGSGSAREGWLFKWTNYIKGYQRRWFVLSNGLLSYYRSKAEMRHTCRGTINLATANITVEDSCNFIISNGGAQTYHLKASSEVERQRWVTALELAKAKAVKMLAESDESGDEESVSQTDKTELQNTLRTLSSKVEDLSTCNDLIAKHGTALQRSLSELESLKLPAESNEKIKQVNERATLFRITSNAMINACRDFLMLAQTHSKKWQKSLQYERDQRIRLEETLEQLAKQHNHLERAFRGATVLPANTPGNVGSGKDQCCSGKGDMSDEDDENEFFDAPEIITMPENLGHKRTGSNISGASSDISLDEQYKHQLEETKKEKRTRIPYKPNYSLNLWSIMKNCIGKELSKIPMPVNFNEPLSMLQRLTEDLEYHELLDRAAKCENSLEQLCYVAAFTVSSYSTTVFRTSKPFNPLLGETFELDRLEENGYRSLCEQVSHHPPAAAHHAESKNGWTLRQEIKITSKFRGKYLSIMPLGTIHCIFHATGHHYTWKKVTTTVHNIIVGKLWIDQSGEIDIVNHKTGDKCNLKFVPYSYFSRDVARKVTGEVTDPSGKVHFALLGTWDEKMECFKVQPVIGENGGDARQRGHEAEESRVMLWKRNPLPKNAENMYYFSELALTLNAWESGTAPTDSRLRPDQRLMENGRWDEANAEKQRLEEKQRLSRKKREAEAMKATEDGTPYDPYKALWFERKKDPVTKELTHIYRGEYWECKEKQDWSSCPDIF
In words: SPR (Biacore 8K, protein immobilised on CM5 by amine coupling, kon/koff). Type of assay: binding. A general note: In SPR one partner is held on a chip, and binding of the other changes the refractive index at the surface.

In assay [2] the target is T2, ORP4L (Homo sapiens, UniProt Q969R2).
T2 construct: gene OSBP2; full-length cDNA in pGEX-4T-1, E. coli Rosetta(DE3), GST fusion, GST tag removed by thrombin
T2 sequence (Q969R2 1-916): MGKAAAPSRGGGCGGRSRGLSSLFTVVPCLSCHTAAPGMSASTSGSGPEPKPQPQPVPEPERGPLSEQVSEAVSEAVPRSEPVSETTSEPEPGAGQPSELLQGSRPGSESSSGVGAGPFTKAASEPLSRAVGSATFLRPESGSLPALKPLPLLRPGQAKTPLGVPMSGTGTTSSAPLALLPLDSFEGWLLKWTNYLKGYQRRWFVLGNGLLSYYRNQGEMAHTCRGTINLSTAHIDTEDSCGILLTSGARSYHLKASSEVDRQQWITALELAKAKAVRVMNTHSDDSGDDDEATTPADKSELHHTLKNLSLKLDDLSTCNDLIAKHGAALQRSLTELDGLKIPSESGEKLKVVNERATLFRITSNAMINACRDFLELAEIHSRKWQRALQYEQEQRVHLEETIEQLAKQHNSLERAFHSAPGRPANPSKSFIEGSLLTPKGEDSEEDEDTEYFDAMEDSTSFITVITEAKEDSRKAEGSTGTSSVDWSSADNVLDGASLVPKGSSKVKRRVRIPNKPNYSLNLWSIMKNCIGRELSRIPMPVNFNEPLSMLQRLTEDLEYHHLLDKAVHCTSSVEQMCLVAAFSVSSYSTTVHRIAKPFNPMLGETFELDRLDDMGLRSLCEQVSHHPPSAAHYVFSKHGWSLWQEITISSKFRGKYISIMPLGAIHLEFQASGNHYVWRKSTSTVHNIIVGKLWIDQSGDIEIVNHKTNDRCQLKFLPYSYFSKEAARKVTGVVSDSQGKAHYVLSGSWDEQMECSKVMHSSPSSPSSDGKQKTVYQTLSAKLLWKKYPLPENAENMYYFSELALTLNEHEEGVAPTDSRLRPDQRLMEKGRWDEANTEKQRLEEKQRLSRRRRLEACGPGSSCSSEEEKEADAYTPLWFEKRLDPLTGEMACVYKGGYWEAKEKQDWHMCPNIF
The description is as above. The settings on record: PBST pH 7.4, 25 °C; acyl chains of PI(4)P not told for this test (diC8 named only for the competition test). Type of assay: binding.

Like-named read-outs stand apart in the source and are kept apart here.

By Kd is commonly meant the constant that tells how readily two partners part at equilibrium. A high value points to a looser complex. The molecule `COc1ccc(C(=O)O[C@H]2[C@H](O[C@@H]3[C@@H](OC(C)=O)[C@H](O[C@H]4C[C@H]5[C@@H]6CC=C7C[C@@H](O)CC[C@]7(C)[C@H]6CC[C@]5(C)[C@@]4(O)[C@H](C)C(=O)CCC(C)C)OC[C@@H]3O)OC[C@@H](O)[C@@H]2O)cc1` [OSW-1] showed a Kd in assay [1] of 1.8 ± 0.37 µM.
In the case of PI(4)P, the Kd came to 4.3 ± 1.2 µM in assay [1] (PBST pH 7.4, 25 °C, acyl chains of PI(4)P not told for this test (diC8 named only for the competition test)) and 12.7 ± 2.1 µM in assay [2].
